This passage reports IC50 results from ChEMBL document CHEMBL1158819, “Zyzzyanones B-D, dipyrroloquinones from the marine sponge Zyzzya fuliginosa” (J Nat Prod, 2005).

Converted amounts (≈) assume the structure as drawn.

A short description of this experiment: Cytotoxicity against mouse EAC cells. The experiment is classed as functional, cell-based. To be noted: Ehrlich.
On to `CNCCc1c[nH]c2c1C(=O)c1c(-c3ccc(O)cc3)c[nH]c1C2=O` [ZYZZYANONE B], for which the 50% inhibitory concentration (IC50) (in general, the point on the concentration scale where inhibition reaches its midpoint) is 25 µg/mL (≈ 74.5 µM). `CN(C=O)CCc1c[nH]c2c1C(=O)c1c(-c3ccc(O)cc3)c[nH]c1C2=O` [ZYZZYANONE D] returned an IC50 of 25 µg/mL (≈ 68.8 µM). For the molecule `CN(C=O)CCc1cn(C)c2c1C(=O)c1c(-c3ccc(O)cc3)c[nH]c1C2=O` [ZYZZYANONE C], it took 25 µg/mL (≈ 66.2 µM) to reach half-maximal inhibition (IC50).
